Source: patent US9255268B2, “Methods for diagnosing and treating learning or mental disorders” (St. Jude Children's Research Hospital, priority 2012, dated 2016)

Experiments:
SERCA2 = assay: Quantitative western blot of SERCA2 in hippocampus after AAV-miRNA injection into CA3; assay type: in vivo, mouse; settings: wild-type mice; injection into CA3 at 10 weeks, hippocampi harvested at 16 weeks; versus GFP-only vector
Description: Western blots were performed according to known methods (Earls, et al. (2010) supra). For human brain tissue, dissected samples arrived from brain banks frozen on dry ice. Mouse tissue was dissected at 4° C. and prepared either as whole-tissue lysates or as crude P2 synaptosomal fractions. Synaptosomes were prepared using established methods (Gray & Whittaker (1962) J. Anat. 96:79-88). In brief, tissue was homogenized in 10 mM HEPES (pH 7.4)/0.32 M sucrose using a motorized glass-TEFLON homogenizer. To separate the P2 synaptosomal fraction, the homogenate was spun for 5 minutes at 800×g; the supernatant from three successive spins was then centrifuged for 20 minutes at 12,000×g. Tissue or synaptosomal pellets were lysed by freezing and thawing, subsequent syringe passage in ice-cold radioimmunoprecipitation assay buffer (50 mM Tris-HCl (pH 7.4), 1% NP-40, 0.25% sodium deoxycholate, 150 mM NaCl, 1 mM EDTA, and protease inhibitor cocktail tablets (Roche), and finally brief sonication. Concentrations of protein lysates were determined by the BCA assay (Thermo Scientific). A 25 μg sample of each protein extract was electrophoresed on a 10% SDS-PAGE gel, and protein was transferred onto polyvinylidene difluoride membranes (Invitrogen). The primary antibodies used were goat anti-SERCA2 (1:250, sc-8095; Santa Cruz Biotechnology) and mouse anti-β-actin (1:10000, A5316; Sigma-Aldrich). […]

[1] = tested on: LTP in Dgcr8+/− hippocampus; assay: Rescue of LTP increase in Dgcr8+/− mice by presynaptic restoration of miRNA (AAV into CA3); assay type: in vivo, mouse; settings: presynaptic (CA3) AAV expression; injected at 10 weeks, LTP measured at 16 weeks
Description: (§1) Acute transverse hippocampal slices (400 μm) were prepared according to known methods (Earls, et al. (2010) J. Neurosci. 30:15843-15855). Briefly, mouse brains were quickly removed and placed in cold (4° C.) dissecting artificial CSF (ACSF) containing 125 mM choline-Cl, 2.5 mM KCl, 0.4 mM CaCl2, 6 mM MgCl2, 1.25 mM NaH2PO4, 26 mM NaHCO3, and 20 mM glucose (285-295 mOsm), under 95% O2/5% CO2. After dissection, slices were incubated for 1 hour in ACSF containing 125 mM NaCl, 2.5 mM KCl, 2 mM CaCl2, 2 mM MgCl2, 1.25 mM NaH2PO4, 26 mM NaHCO3, and 10 mM glucose (285-295 mOsm), under 95% O2/5% CO2 at room temperature, and then transferred into submerged recording chambers and superfused (2-3 ml/min) with warm (30-32° C.) ACSF. Field recordings were performed using a setup with eight submerged recording chambers (Campden Instruments). Recordings in each chamber were performed independently. Field EPSPs (fEPSPs) from the CA1 stratum radiatum were recorded by using an extracellular glass pipette (3-5 MΩ) filled with ACSF. Schaffer collateral fibers in the stratum radiatum were stimulated with a bipolar tungsten electrode placed 200-300 μm away from the recording pipette. Stimulation intensities were chosen to produce an fEPSP with a 0.5 V/s slope. LTP was induced by three periods of 200 Hz tetanization delivered every 5 minutes. Each period of tetanization included 10 trains of 200 Hz stimulation delivered at the same intensity for 200 ms (40 stimulations) every 5 seconds.
In Vivo Viral Injections. Adeno-associated viruses (AAVs) were prepared by cloning chimeric hairpins of them iRNAs of interest with hsa-miR-30a into the pAAV-6P-SEWB vector (Christensen, et al. (2010) Front. Neural Circuits 3:16). […]

[2] = tested on: LTP at CA3-CA1 synapses in hippocampal slices; assay: LTP of fEPSPs in acute hippocampal slices in the presence of the SERCA inhibitor thapsigargin; assay type: cell-based, mouse
Description: as §1, with “seconds. To test whether this increase in SERCA2 was necessary for enhanced LTP in Dgcr8^+/− mice, LTP was measured in the presence of the SERCA inhibitor thapsigargin (4 μM). […] In the absence of thapsigargin, the fEPSP slope increased measured six hours after induction was approximately 120% stronger than in the presence of thapsigargin in slices from Dgcr8^+/− mice (8 mice: 21 slices vehicle, 21 slices thapsigargin; p=0.014).” for “seconds.”

miR-25: microRNA; human mature sequence CAUUGCACUUGUCUCGGUCUGA (SEQ ID NO:2) (CAUUGCACUUGUCUCGGUCUGA; expressed or natural sequence; listed as Homo sapiens)
SERCA2 levels (quantitative western blot) (SERCA2): decreased | rescue of increased LTP in Dgcr8+/− hippocampus [1]: sufficient to rescue the increased LTP

C/C=C(/C)C(=O)O[C@H]1C(C)=C2[C@H]([C@@H]1OC(=O)CCCCCCC)[C@@](C)(OC(C)=O)C[C@H](OC(=O)CCC)[C@@]1(O)[C@H]2OC(=O)[C@@]1(C)O [thapsigargin]
fEPSP slope increase in the absence versus the presence of thapsigargin ([2]; six hours after induction, 4 μM, slices from Dgcr8+/− mice, p=0.014): approximately 120% | LTP increase in Dgcr8+/− slices ([2]; thapsigargin 4 μM, slices from mature Dgcr8+/− mice): rescued the LTP increase | LTP in slices from wild-type littermates ([2]; thapsigargin 4 μM, wild-type slices, p=0.974): did not affect LTP

miR-185: microRNA; human mature sequence UGGAGAGAAAGGCAGUUCCUGA (SEQ ID NO:6) (UGGAGAGAAAGGCAGUUCCUGA; expressed or natural sequence; listed as Homo sapiens)
SERCA2 levels (quantitative western blot) (SERCA2): decreased | rescue of increased LTP in Dgcr8+/− hippocampus [1]: sufficient to rescue the increased LTP

miR-98: microRNA; human mature sequence UGAGGUAGUAAGUUGUAUUGUU (SEQ ID NO:4) (UGAGGUAGUAAGUUGUAUUGUU; expressed or natural sequence; listed as Homo sapiens)
rescue of increased LTP in Dgcr8+/− hippocampus [1]: sufficient to rescue aberrant LTP
